Data published in patent EP1203585A1, “ANTI-ISCHEMIC AGENT” (Zakrytoe Aktsionernoe Obschestvo " Asgl-Issledovatelskie …, priority 1999, dated 2001).

Columns and labels:
[1] = tested on: rats with experimental myocardial infarction; test: experimental myocardial infarction after occlusion of the descending branch of the left coronary artery (LAD), morphometry of ischemia and injury zones; type: in vivo; conditions: for Area of the injury zone: ischemia zone plus necrosis zone; for Area of the injury zone / Area of the necrosis zone / Ratio: necrosis zone /myocard / Ratio: necrosis/ ischemia / Area of the myocardial zone / Area of the ischemia zone / Ratio: ischemia zone/ myocard: third day, PhP 50 mg/kg intraperitoneally 30 minutes before LAD occlusion; for Area of the injury zone / Area of the necrosis zone / Ratio: necrosis zone /myocard / Ratio: necrosis/ ischemia / Area of the ischemia zone / Ratio: ischemia zone/ myocard: Obzidan 0.5 mg/kg; for Area of the injury zone / Area of the ischemia zone / Ratio: ischemia zone/ myocard: * p<0.05 vs physiological solution; for Area of the myocardial zone: Obzidan 0.5 mg/kg 30 minutes before
Experimental: The study on 4-phenyl-2-pyrrolidinone-1-acetic acid amide anti-ischemic activity has been carried out in model of experimental myocardial infarction caused by the experimental myocardial infarction after the descending branch of the left coronary artery (LAD) occlusion in rats. 4-phenyl-2-pyrrolidinone-1-acetic acid amide was administered intraperitoneally in dose 50 mg/kg 30 minutes before the LAD-occlusion. Anti-ischemic activity of the substance was assessed on the third day after its administration by estimation of the area of necrosis, the area of ischemia and the total myocardial necrosis zone (area of necrosis plus area of ischemia). Ischemia zone and myocardial injury zones were assessed by morphometry methods. Results obtained in the experimental animals' groups exposed to the substance were compared with results obtained in animals, exposed to Obzidan and physiological solutionin (PhS) in dose 0.5 mg/kg, administered 30 minutes before the LAD occlusion.

rats [2] = test: chronic toxicity; type: in vivo; conditions: 160 rats, perorally in doses 50, 250 and 500 mg/kg
acute toxicity (LD50) = test: acute toxicity (LD50); design: species or system rats; conditions: rat, in vivo
Experimental: Acute toxicity (LD50) has been studied in rats, the substance being administered intraperitoneally and perorally. […] LD50 of the substance administered perorally to rats (males and females) - 2464,8 mg/kg, of the pharmaceutical form - 3185,8 mg/kg.

rats [3] = test: hemodynamics parameters estimated by direct method; type: in vivo
Experimental: In the other study parameters of hemodynamics in rats exposed to PhP have been estimated (minute cardiac supply, cardiac index, cardiac output, heart rate). Hemodynamics parameters have been estimated by direct method on the fourth day after PhP administration in dose 50 mg/kg.

rats [4] = test: toxicity study, blood and biochemical parameters at 50 and 100 mg/kg; type: in vivo
dogs = test: chronic toxicity; type: in vivo; conditions: 28 dogs, perorally in doses 50, 250 and 500 mg/kg
rabbits = test: toxicity study, blood and biochemical parameters at 50 and 100 mg/kg; type: in vivo
[5] = PhP 50 mg/kg intraperitoneally, compared with physiological solution
[6] = 4th day after PhP administration, dose 50 mg/kg

For `CC(C)NCC(O)COc1cccc2ccccc12` (stereo not drawn) [Obzidan, reference compound], the “Area of the injury zone” value [1] was 203,68 MM^2, the “Area of the necrosis zone” value [1] was 28,48 mm^2 and the “Ratio: necrosis zone /myocard” value [1] was 0,059±. For the same compound, the “Ratio: necrosis/ ischemia” value [1] was 0,163±, the “Area of the myocardial zone” value [1] was 481,13 mm^2 and the “Area of the ischemia zone” value [1] was 175,21 mm^2. The “Ratio: ischemia zone/ myocard” value [1] was 0,365±.
For `NC(=O)CN1CC(c2ccccc2)CC1=O` (stereo not drawn) [PhP, 4-phenyl-2-pyrrolidinone-1-acetic acid amide], the “changes of peripheral blood and heart, kidney and liver functions” value (rats [2]) was “absence of significant changes”, the LD50 (acute toxicity (LD50); ip, rats, females, administered intraperitoneally) was 522 mg/kg and the LD50 (acute toxicity (LD50); ip, rats, males, administered intraperitoneally) was 538 mg/kg. For the same compound, the LD50 (acute toxicity (LD50); po, rats (males and females), administered perorally) was 2460 mg/kg, the Anti-ischemic effect ([1]; PhP 50 mg/kg compared with Obzidan 0.5 mg/kg) was “exceeded the one of Obzidan” and the “area of ischemia zone (result in words)” value [1, 5] was “statistically significantly reduced”. For the same compound, the “area of the total injury zone (ischemia zone plus necrosis zone) (result in words)” value [1, 5] was “statistically significantly reduced”, the “area of myocardial necrosis (result in words)” value ([1]; PhP 50 mg/kg intraperitoneally, not statistically significant) was “nearly twice reduced” and the “Area of the injury zone” value [1] was 182,53 MM^2. For the same compound, the “Area of the necrosis zone” value [1] was 19,21 mm^2, the “Ratio: necrosis zone /myocard” value [1] was 0,039± and the “Ratio: necrosis/ ischemia” value [1] was 0,113±. The “Area of the myocardial zone” value [1] was 492,55 mm^2, the “Area of the ischemia zone” value [1] was 163,33 mm^2 and the “Ratio: ischemia zone/ myocard” value [1] was 0,332±. For the same compound, the Cardiac index (rats [3]; [6]) was 133.8 ±9.8 % in comparison with source data before PhP administration, the Cardiac output (rats [3]; [6]) was 161.8±12.7 % in comparison with source data before PhP administration and the Heart rate (rats [3]; [6]) was 115.4±3.1 % in comparison with source data before PhP administration. The Minute cardiac supply (rats [3]; [6]) was 110.8±3.2 % in comparison with source data before PhP administration, the inotrop effect (rats [3]; PhP 50 mg/kg) was “not followed by any negative inotrop effect” and the “parameters of the peripheral blood, composition of electrolytes and other biochemical parameters” value (rats [4]) was “does not influence”. The “changes of peripheral blood and heart, kidney and liver functions” value (dogs) was “absence of significant changes” and the “parameters of the peripheral blood, composition of electrolytes and other biochemical parameters” value (rabbits) was “does not influence”.
